Assay results taken from ChEMBL document CHEMBL4706569, “Hydroxy-corrole and its gallium(III) complex as new photosensitizer for photodynamic therapy against breast carcinoma” (Eur J Med Chem, 2020).
Active and inactive are the calls of the source. The calls are words filed in the database; no cut-off is given here.

Experiments:
[1] = Absorption property of the compound in DMF assessed as soret band molar attenuation coefficient at 1 uM by UV-visible spectrophotometric method; assay type: physicochemical
[2] = Phototoxicity index, ratio of IC50 for cytotoxicity against HUVEC measured under dark condition to IC50 for phototoxicity against HUVEC upon LED light irradiation; conditions: human, read-out: Ratio IC50
[3] = Induction of singlet oxygen generation in DMF solution assessed as singlet oxygen quantum yield at 1 uM irradiated with 625 +/- 2 nanometer laser light by DPBF-based assay; assay type: functional
[4] = Absorption property of the compound in DMF assessed as soret band wavelength molar absorption coefficient at 1 uM by UV-visible spectrophotometric method; assay type: physicochemical
[5] = Absorption property of the compound in DMF assessed as soret band molar extinction coefficient at 1 uM by UV-visible spectrophotometric method; assay type: physicochemical
[6] = Absorption property of the compound in DMF assessed as Q band absorption wavelength at 1 uM by UV-visible spectrophotometric method; assay type: physicochemical
[7] = Phototoxicity index, ratio of IC50 for cytotoxicity against human MDA-MB-231 cells measured under dark condition to IC50 for phototoxicity against human MDA-MB-231 cells upon LED light irradiation
MDA-MB-231 [8] = assay: Phototoxicity against human MDA-MB-231 cells assessed as reduction in cell viability preincubated for 4 hrs followed by irradiation with 0.3 W/cm2 of 625 +/- 2 nanometer LED light for 1 hr and measured after 42 hrs by MTT assay; assay type: functional, cell-based; conditions: MDA-MB-231, light or radiation study
[9] = Absorption property of the compound in DMF assessed as Q band molar extinction coefficient at 1 uM by UV-visible spectrophotometric method; assay type: physicochemical
HUVEC = assay: Phototoxicity against HUVEC assessed as reduction in cell viability preincubated for 4 hrs followed by irradiation with 0.3 W/cm2 of 625 +/- 2 nanometer LED light for 1 hr and measured after 42 hrs by MTT assay; assay type: cell-based; conditions: Homo sapiens, light or radiation study
[10] = Selectivity index, ratio of IC50 for HUVEC in presence of light irradiation to IC50 for human MDA-MB-231 cells in presence of light irradiation; assay type: toxicity; conditions: HUVEC and MDA-MB-231 cells, read-out: Ratio IC50
[11] = Dark toxicity in mouse 4T1 cells assessed as reduction in cell viability by MTT assay; assay type: cell-based
[12] = Phototoxicity index, ratio of IC50 for cytotoxicity against mouse 4T1 cells measured under dark condition to IC50 for phototoxicity against mouse 4T1 cells upon LED light irradiation
[13] = Dark toxicity in human MDA-MB-231 cells assessed as reduction in cell viability by MTT assay; assay type: cell-based
4T1 = assay: Phototoxicity against mouse 4T1 cells assessed as reduction in cell viability preincubated for 4 hrs followed by irradiation with 0.3 W/cm2 of 625 +/- 2 nanometer LED light for 1 hr and measured after 42 hrs by MTT assay; assay type: functional, cell-based; conditions: 4T1, light or radiation study
[14] = Dark toxicity in HUVEC assessed as reduction in cell viability by MTT assay; assay type: cell-based; conditions: human
[15] = Absorption property of the compound in DMF assessed as soret band absorption wavelength at 1 uM by UV-visible spectrophotometric method; assay type: physicochemical
MDA-MB-231 [16] = assay: Induction of apoptosis in human MDA-MB-231 cells assessed as late apoptotic cells at 2.5 uM under dark condition by annexin V-FITC/PI based flow cytometric analysis (reference value: 0.67 %); assay type: functional
MDA-MB-231 [17] = assay: Induction of cell cycle arrest in human MDA-MB-231 cells assessed as accumulation at G1 phase at 5 uM preincubated with 625 +/- 2 nanometer LED light irradiation for 1 hrs and measured after 24 hrs by RNase A/propidium iodide staining based flow cytometry analysis (reference value: 43.6 %); assay type: functional; conditions: time 25 hrs
[18] = Drug localization in mitochondria of human MDA-MB-231 cells at 20 uM incubated for 4 hrs by Mito-tracker dye based confocal laser scanning microscopy; assay type: ADME; conditions: mda-mb-231, 4 h
MDA-MB-231 [19] = assay: Induction of apoptosis in human MDA-MB-231 cells assessed as early apoptotic cells at 2.5 uM under dark condition by annexin V-FITC/PI based flow cytometric analysis (reference value: 0 %); assay type: functional
[20] = Drug uptake in human MDA-MB-231 cells at 10 uM incubated for 4 hrs by Hoechst 33342 staining based fluorescence microscopy; assay type: ADME, cell-based; conditions: mda-mb-231, 4 h
MDA-MB-231 [21] = assay: Induction of cell cycle arrest in human MDA-MB-231 cells assessed as accumulation at G2 phase at 5 uM preincubated with 625 +/- 2 nanometer LED light irradiation for 1 hrs and measured after 24 hrs by RNase A/propidium iodide staining based flow cytometry analysis (reference value: 22.1 %); assay type: functional; conditions: time 25 hrs
MDA-MB-231 [22] = assay: Induction of cell cycle arrest in human MDA-MB-231 cells assessed as accumulation at G1 phase at 5 uM measured after 24 hrs under dark condition by RNase A/propidium iodide staining based flow cytometry analysis (reference value: 47.5 %); assay type: functional
MDA-MB-231 [23] = assay: Induction of apoptosis in human MDA-MB-231 cells assessed as late apoptotic cells at 2.5 uM preincubated for 4 hrs followed by 625 +/- 2 nanometer LED light irradiation for 1 hr and measured after 18 hrs by annexin V-FITC/PI based flow cytometric analysis (reference value: 1.34 %); assay type: functional; conditions: time 23 hrs
MDA-MB-231 [24] = assay: Induction of mitochondrial depolarization in human MDA-MB-231 cells at 2.5 uM in dark by JC1 staining based fluorescence microscopy; assay type: functional, cell-based
MDA-MB-231 [25] = assay: Induction of mitochondrial depolarization in human MDA-MB-231 cells at 2.5 uM preincubated for 4 hrs followed by 625 +/- 2 nanometer LED light irradiation for 1 hr and measured after 18 hrs by JC1 staining based fluorescence microscopy; assay type: functional, cell-based; conditions: time 23.0 hrs
MDA-MB-231 [26] = assay: Induction of apoptosis in human MDA-MB-231 cells assessed as early apoptotic cells at 2.5 uM preincubated for 4 hrs followed by 625 +/- 2 nanometer LED light irradiation for 1 hr and measured after 18 hrs by annexin V-FITC/PI based flow cytometric analysis (reference value: 0.27 %); assay type: functional; conditions: time 23 hrs
MDA-MB-231 [27] = assay: Induction of cell cycle arrest in human MDA-MB-231 cells assessed as accumulation at sub-G1 phase at 5 uM preincubated with 625 +/- 2 nanometer LED light irradiation for 1 hrs and measured after 24 hrs by RNase A/propidium iodide staining based flow cytometry analysis (reference value: 3.93 %); assay type: functional; conditions: time 25 hrs
MDA-MB-231 [28] = assay: Induction of apoptosis in human MDA-MB-231 cells assessed as necrotic cells at 2.5 uM preincubated for 4 hrs followed by 625 +/- 2 nanometer LED light irradiation for 1 hr and measured after 18 hrs by annexin V-FITC/PI based flow cytometric analysis (reference value: 0.41 %); assay type: functional; conditions: time 23 hrs
MDA-MB-231 [29] = assay: Induction of apoptosis in human MDA-MB-231 cells assessed as viable cells at 2.5 uM under dark condition by annexin V-FITC/PI based flow cytometric analysis (reference value: 99.0 %); assay type: functional; conditions: read-out: Activity
MDA-MB-231 [30] = assay: Induction of apoptosis in human MDA-MB-231 cells assessed as viable cells at 2.5 uM preincubated for 4 hrs followed by 625 +/- 2 nanometer LED light irradiation for 1 hr and measured after 18 hrs by annexin V-FITC/PI based flow cytometric analysis (reference value: 98.0 %); assay type: functional; conditions: MDA-MB-231, light or radiation study, time 23 hrs, read-out: Activity
[31] = Drug localization in lysosome of human MDA-MB-231 cells at 20 uM incubated for 4 hrs by Lyso-tracker dye based confocal laser scanning microscopy; assay type: ADME, subcellular; conditions: mda-mb-231, 4 h
MDA-MB-231 [32] = assay: Induction of ROS generation in human MDA-MB-231 cells at 2.5 uM in dark by DCFH-DA staining based fluorescence microscopy; assay type: functional, cell-based
MDA-MB-231 [33] = assay: Induction of cell cycle arrest in human MDA-MB-231 cells assessed as accumulation at sub-G1 phase at 5 uM measured after 24 hrs under dark condition by RNase A/propidium iodide staining based flow cytometry analysis (reference value: 2.56 %); assay type: functional
MDA-MB-231 [34] = assay: Induction of cell cycle arrest in human MDA-MB-231 cells assessed as accumulation at G2 phase at 5 uM measured after 24 hrs under dark condition by RNase A/propidium iodide staining based flow cytometry analysis (reference value: 24.4 %); assay type: functional
MDA-MB-231 [35] = assay: Induction of apoptosis in human MDA-MB-231 cells assessed as necrotic cells at 2.5 uM under dark condition by annexin V-FITC/PI based flow cytometric analysis (reference value: 0.36 %); assay type: functional
MDA-MB-231 [36] = assay: Induction of cell cycle arrest in human MDA-MB-231 cells assessed as accumulation at S phase at 5 uM measured after 24 hrs under dark condition by RNase A/propidium iodide staining based flow cytometry analysis (reference value: 24.8 %); assay type: functional
MDA-MB-231 [37] = assay: Induction of cell cycle arrest in human MDA-MB-231 cells assessed as accumulation at S phase at 5 uM preincubated with 625 +/- 2 nanometer LED light irradiation for 1 hrs and measured after 24 hrs by RNase A/propidium iodide staining based flow cytometry analysis (reference value: 29.0 %); assay type: functional; conditions: time 25 hrs
[38] = Drug uptake in human MDA-MB-231 cells at 10 uM by flow cytometric analysis; assay type: ADME, cell-based; conditions: mda-mb-231, 10 µM, TDE = time-dependent effect
MDA-MB-231 [39] = assay: Induction of ROS generation in human MDA-MB-231 cells at 2.5 uM preincubated for 4 hrs followed by 625 +/- 2 nanometer LED light irradiation for 1 hr and measured after 18 hrs by DCFH-DA staining based fluorescence microscopy; assay type: functional, cell-based; conditions: time 23.0 hrs

## Oc1ccccc1-c1c2nc(c(-c3c(F)c(F)c(F)c(F)c3F)c3ccc([nH]3)c3ccc([nH]3)c(-c3c(F)c(F)c(F)c(F)c3F)c3ccc1[nH]3)C=C2
[1]
  Activity: 5.08 log
[2]
  selectivity ratio: > 21.1
[3]
  Activity: 0.45
[4]
  Activity: 441 nm
[5]
  Activity: 5.11 log
[6]
  Activity: 629 nm
[7]
  Ratio IC50: 8.75
MDA-MB-231 [8]
  IC50: 5.81 µM
[9]
  Activity: 4.57 log
HUVEC
  IC50: 4.75 µM
[10]
  selectivity ratio: 0.82
[11]
  IC50: > 100 µM
[12]
  Ratio IC50: >217.39
[13]
  IC50: 50.8 µM
4T1
  IC50: 0.46 µM
[14]
  IC50: > 100 µM
[15]
  Activity: 425 nm

## Oc1cccc(-c2c3nc(c(-c4cccc(O)c4)c4ccc([nH]4)c(-c4cccc(O)c4)c4nc(c(-c5cccc(O)c5)c5ccc2[nH]5)CC4)C=C3)c1 [TEMOPORFIN]
[2]
  selectivity ratio: > 66.7
[7]
  Ratio IC50: 38.41
MDA-MB-231 [8]
  IC50: 0.87 µM
HUVEC
  IC50: 1.5 µM
[10]
  selectivity ratio: 1.72
[11]
  IC50: 38 µM
[12]
  Ratio IC50: 760.2
[13]
  IC50: 33.4 µM
4T1
  IC50: 0.05 µM
[14]
  IC50: > 100 µM

## Oc1cccc(-c2c3nc(c(-c4c(F)c(F)c(F)c(F)c4F)c4ccc([nH]4)c4ccc([nH]4)c(-c4c(F)c(F)c(F)c(F)c4F)c4ccc2[nH]4)C=C3)c1
[1]
  Activity: 5.1 log
[2]
  selectivity ratio: > 112
[3]
  Activity: 0.46
[4]
  Activity: 443 nm
[5]
  Activity: 5.12 log
[6]
  Activity: 633 nm
[7]
  Ratio IC50: >60.98
MDA-MB-231 [8]
  IC50: 1.64 µM
[9]
  Activity: 4.61 log
HUVEC
  IC50: 0.89 µM
[10]
  selectivity ratio: 0.54
[11]
  IC50: > 100 µM
[12]
  Ratio IC50: >175.44
[13]
  IC50: > 100 µM
4T1
  IC50: 0.57 µM
[14]
  IC50: > 100 µM
[15]
  Activity: 428 nm

## Oc1ccc(-c2c3nc(c(-c4c(F)c(F)c(F)c(F)c4F)c4ccc([nH]4)c4ccc([nH]4)c(-c4c(F)c(F)c(F)c(F)c4F)c4ccc2[nH]4)C=C3)cc1
MDA-MB-231 [16]
  Activity: 1.01%
MDA-MB-231 [17]
  Activity: 25.1%
[18]
  Drug uptake: Active
[1]
  Activity: 5.09 log
MDA-MB-231 [19]
  Activity: 0.013%
[20]
  Drug uptake: Active
MDA-MB-231 [21]
  Activity: 17.5%
MDA-MB-231 [22]
  Activity: 46.7%
[2]
  selectivity ratio: > 10.9
[3]
  Activity: 0.55
[4]
  Activity: 443 nm
[5]
  Activity: 5.12 log
MDA-MB-231 [23]
  Activity: 30.1%
MDA-MB-231 [24]
  Activity: inactive
[6]
  Activity: 633 nm
MDA-MB-231 [25]
  Activity: Active
[7]
  Ratio IC50: >238.1
MDA-MB-231 [8]
  IC50: 0.42 µM
MDA-MB-231 [26]
  Activity: 0.095%
[9]
  Activity: 4.62 log
MDA-MB-231 [27]
  Activity: 38.6%
HUVEC
  IC50: 9.32 µM
[10]
  selectivity ratio: 22.2
[11]
  IC50: > 100 µM
MDA-MB-231 [28]
  Activity: 5.29%
MDA-MB-231 [29]
  viability at 2.5 µM: 98.3%
MDA-MB-231 [30]
  viability at 2.5 µM: 64.5%
[31]
  Drug uptake: Active
MDA-MB-231 [32]
  Activity: inactive
[12]
  Ratio IC50: >333.33
MDA-MB-231 [33]
  Activity: 2.84%
MDA-MB-231 [34]
  Activity: 26.1%
[13]
  IC50: > 100 µM
MDA-MB-231 [35]
  Activity: 0.72%
MDA-MB-231 [36]
  Activity: 23.2%
4T1
  IC50: 0.3 µM
MDA-MB-231 [37]
  Activity: 18.1%
[14]
  IC50: > 100 µM
[38]
  Drug uptake: Tde
MDA-MB-231 [39]
  Activity: Active
[15]
  Activity: 427 nm
